Results published in patent publication US11351173B2, “Substituted pyrrolo[1,2-a]pyrimidines and their use in the treatment of medical disorders” (Bial—R&D Investments, S.A., priority 2014, dated 2022).
Converted amounts (≈) assume the structure as drawn.

Experiments:
[1] = biological target: T1, glucocerebrosidase (Gcase) (Homo sapiens, UniProt P04062); assay: Glucocerebrosidase (Gcase) activation assay, 4-methylumbelliferyl-beta-D-glucopyranoside substrate, fluorescence readout; assay type: biochemical; details: for activation at 0.1 µM / Percent Gcase Activation, 0.1 μM Test Compound: test compound at 0.1 μM; for activation at 0.1 µM: read-out: Percent Gcase Activation, 0.1 μM Test Compound; for activation at 1 µM / Percent Gcase Activation, 1 μM Test Compound: test compound at 1.0 μM; for activation at 1 µM: read-out: Percent Gcase Activation, 1 μM Test Compound
T1 construct: micellar solution containing 10 nM GCase and 100 nM saposin C
T1 sequence (P04062 40-536): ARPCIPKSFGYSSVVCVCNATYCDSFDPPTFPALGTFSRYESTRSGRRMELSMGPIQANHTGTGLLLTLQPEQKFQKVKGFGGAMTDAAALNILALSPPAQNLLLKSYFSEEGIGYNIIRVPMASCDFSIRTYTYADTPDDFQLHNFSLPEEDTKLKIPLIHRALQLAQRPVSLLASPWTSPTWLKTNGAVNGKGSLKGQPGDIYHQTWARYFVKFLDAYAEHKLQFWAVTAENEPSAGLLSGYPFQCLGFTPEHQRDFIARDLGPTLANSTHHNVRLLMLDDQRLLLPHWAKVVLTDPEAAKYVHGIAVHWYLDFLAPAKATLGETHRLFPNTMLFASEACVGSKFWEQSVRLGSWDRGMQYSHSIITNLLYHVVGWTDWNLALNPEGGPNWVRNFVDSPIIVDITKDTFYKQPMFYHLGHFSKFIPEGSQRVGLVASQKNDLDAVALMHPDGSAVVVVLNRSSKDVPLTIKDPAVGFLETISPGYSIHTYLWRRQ
Method in brief: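 Test compounds are first screened at 1.0 and 0.1 μM final, then titrated in 8 points (3-fold from 5 μM) against human GCase with saposin C in phosphatidylserine/triton X-100 micelles at pH 4.7. Reactions run 15 min at room temperature, with fluorescence read at 365/440 nm.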

[2] = physchem; details: water, Compound Solubility in Water
[3] = Compound solubility in water; details: for solubility: Compound Solubility in Water

Compound | activation at 0.1 µM [1] | activation at 1 µM [1] | solubility ([3]; water) | solubility ([3]; water, in water) | other results
Cc1cc(C)n2ccc(C(=O)NC3CC4CCC(C3)N4CC(F)(F)F)c2n1 (stereo not shown) [III-128] | < 10% | < 30% | – | – | solubility [2]: 18.9 µg/mL (≈ 49.7 µM)
CCCCCC(=O)N1C2CCC1CC(NC(=O)c1ccn3c(C)cc(C)nc13)C2 (stereo not shown) [III-127] | < 10% | < 30% | – | – | solubility [2]: 6.5 µg/mL (≈ 16.4 µM)
Cc1cc(C)n2ccc(C(=O)NC3CCC(F)(F)CC3)c2n1 [III-92] | < 10% | 30 to 60% | 1.6 µg/mL (≈ 5.21 µM) | – | –
Cc1cc(C(F)(F)F)n2ccc(C(=O)NC3CCCc4ccccc43)c2n1 (stereo not shown) [III-253] | < 10% | 30 to 60% | – | 0.6 µg/mL (≈ 1.61 µM) | –
Cc1cc(C)n2ccc(C(=O)Nc3ccc(-c4ncco4)cc3C)c2n1 [III-150] | > 20% | > 60% | 0.1 µg/mL (≈ 0.289 µM) | – | –
Cc1cc(C)n2ccc(C(=O)N[C@H]3CCCc4ccccc43)c2n1 [III-100] | > 20% | > 60% | 0.7 µg/mL (≈ 2.19 µM) | – | –
Cc1cc(C)n2ccc(C(=O)NC3CCOc4ccc(-c5ncco5)cc43)c2n1 (stereo not shown) [III-207] | < 10% | 30 to 60% | – | 1 µg/mL (≈ 2.57 µM) | –
Cc1cc(C)n2ccc(C(=O)N[C@H]3CC[C@H](OCC(C)(C)C)CC3)c2n1 [III-93] | > 20% | > 60% | 6.2 µg/mL (≈ 17.3 µM) | – | –
CCCCCO[C@H]1CC[C@H](NC(=O)c2ccn3c(C)cc(C)nc23)CC1 [III-201] | > 20% | > 60% | 0.5 µg/mL (≈ 1.4 µM) | – | –
COc1cc(-c2cocn2)ccc1NC(=O)c1ccn2c(C)cc(C)nc12 [III-109] | > 20% | > 60% | 0.1 µg/mL (≈ 0.276 µM) | – | –
Cc1cc(C)n2ccc(C(=O)N[C@@H]3CCCc4ccccc43)c2n1 [III-168] | > 20% | > 60% | 0.7 µg/mL (≈ 2.19 µM) | – | –
C#CCCCOC1CCC(NC(=O)c2ccn3c(C)cc(C)nc23)C1 (stereo not shown) [III-272] | < 10% | > 60% | – | 15.8 µg/mL (≈ 46.5 µM) | –
Cc1cc(C)n2ccc(C(=O)N[C@H]3CC[C@@H](OCC(C)(C)C)CC3)c2n1 [III-94] | > 20% | > 60% | 1.8 µg/mL (≈ 5.03 µM) | – | –
Cc1cc(C)n2ccc(C(=O)NC3CCCCC34CCCCO4)c2n1 (stereo not shown) [III-152] | 10 to 20% | > 60% | 6.7 µg/mL (≈ 19.6 µM) | – | –
CNc1cc(C)n2ccc(C(=O)N[C@H]3CC[C@H](OCC(C)C)CC3)c2n1 [III-71] | > 20% | > 60% | 1 µg/mL (≈ 2.79 µM) | – | –
Cc1cc(C)n2ccc(C(=O)NC3CCC4(CCCO4)C3)c2n1 (stereo not shown) [III-147] | – | – | – | – | Percent Gcase Activation, 0.1 μM Test Compound [1]: * (less than 10% Gcase activation); Percent Gcase Activation, 1 μM Test Compound [1]: + (less than 30% Gcase activation); Compound Solubility in Water ([3]; water): 20.4 µg/mL
CCOCCO[C@H]1CC[C@H](NC(=O)c2ccn3c(C)cc(C)nc23)CC1 [III-102] | < 10% | < 30% | 38.3 µg/mL (≈ 107 µM) | – | –
Cc1ccnc2c(C(=O)N[C@H]3CCCc4ccccc43)ccn12 [III-255] | > 20% | > 60% | – | 3.5 µg/mL (≈ 11.5 µM) | –
Cc1cc(C)n2ccc(C(=O)NC3CCc4ccc(-c5cocn5)cc43)c2n1 (stereo not shown) [III-130] | – | > 60% | 0.5 µg/mL (≈ 1.34 µM) | – | –
Cc1cc(C)n2ccc(C(=O)N[C@H]3CC[C@H](OC(C)C)CC3)c2n1 [III-106] | 10 to 20% | > 60% | 10.4 µg/mL (≈ 31.6 µM) | – | –

Compound | activation at 0.1 µM [1] | activation at 1 µM [1] | solubility ([3]; water) | solubility ([3]; water, in water) | other results
[2H]C1(NC(=O)c2ccn3c(C)ccnc23)CCCc2ccccc21 (stereo not shown) [III-263] | > 20% | > 60% | – | 7.1 µg/mL (≈ 23.2 µM) | –
CCOCCOC1CCC(NC(=O)c2ccn3c(C)cc(C)nc23)c2ccccc21 (stereo not shown) [III-231] | 10 to 20% | > 60% | – | 20.1 µg/mL (≈ 49.3 µM) | –
Cc1cc(C)n2ccc(C(=O)Nc3ccc(-c4cocn4)cc3)c2n1 [III-1] | > 20% | > 60% | < 1.5 µg/mL | – | –
Cc1cc(C)n2ccc(C(=O)Nc3ccc4nc(C)sc4c3)c2n1 [III-88] | 10 to 20% | > 60% | 0.1 µg/mL (≈ 0.297 µM) | – | –
Cc1cc(C(F)(F)F)nc2c(C(=O)NC3CCC4(CCCCO4)C3)ccn12 (stereo not shown) [III-249] | – | – | – | – | Percent Gcase Activation, 1 μM Test Compound [1]: +++ (Gcase activation greater than 60%); Compound Solubility in Water ([3]; in water): 12.6 µg/mL
COC1CCC(NC(=O)c2ccn3c(C)cc(C)nc23)c2ccccc21 (stereo not shown) [III-212] | 10 to 20% | > 60% | – | 13.6 µg/mL (≈ 38.9 µM) | –
COCC#Cc1ccc(NC(=O)c2ccn3c(C)cc(C)nc23)cc1 [III-4] | > 20% | > 60% | < 1.5 µg/mL | – | –
Cc1cc(C)n2ccc(C(=O)Nc3ccc4c(c3)C(O)CC4)c2n1 (stereo not shown) [III-222] | < 10% | < 30% | – | 0.5 µg/mL (≈ 1.56 µM) | –
Cc1ccnc2c(C(=O)N[C@H](C)c3ccc(F)cc3)ccn12 [III-261] | 10 to 20% | 30 to 60% | – | 12.7 µg/mL (≈ 42.7 µM) | –
Cc1cc(C)n2ccc(C(=O)NC3Cc4ccccc4C3)c2n1 [III-215] | 10 to 20% | > 60% | – | 0.3 µg/mL (≈ 0.982 µM) | –
Cc1cc(C)n2ccc(C(=O)NC3c4ccccc4C4CC3C4)c2n1 (stereo not shown) [III-136] | > 20% | > 60% | 2.7 µg/mL (≈ 8.15 µM) | – | –
CCCCCO[C@@H]1CC[C@H](NC(=O)c2ccn3c(C)cc(C)nc23)C1 [III-180] | – | – | – | – | Percent Gcase Activation, 0.1 μM Test Compound [1]: * (less than 10% Gcase activation); Percent Gcase Activation, 1 μM Test Compound [1]: +++ (Gcase activation greater than 60%); Compound Solubility in Water ([3]; water): 10.4 µg/mL
Cc1cc(C)n2ccc(C(=O)NC3CCc4nc(C)oc4C3)c2n1 (stereo not shown) [III-284] | < 10% | < 30% | – | 21.1 µg/mL (≈ 65 µM) | –
COCCOc1ccc2c(c1)C(NC(=O)c1ccn3c(C)cc(C)nc13)CC2 (stereo not shown) [III-103] | 10 to 20% | > 60% | 11.8 µg/mL (≈ 31.1 µM) | – | –
Cc1cc(C)n2ccc(C(=O)NC3CC4CCC(C3)O4)c2n1 (stereo not shown) [III-169] | < 10% | < 30% | 29.3 µg/mL (≈ 97.9 µM) | – | –
Cc1cc(C)n2ccc(C(=O)NC3CCOc4ccc(F)cc43)c2n1 (stereo not shown) [III-225] | > 20% | > 60% | – | 1.8 µg/mL (≈ 5.3 µM) | –
CCCOCCO[C@H]1CC[C@H](NC(=O)c2ccn3c(C)cc(C)nc23)CC1 [III-197] | < 10% | 30 to 60% | 16.9 µg/mL (≈ 45.2 µM) | – | –
Cc1cc(C)n2ccc(C(=O)Nc3cnc(-c4ncccn4)c(Cl)c3)c2n1 [III-223] | < 10% | < 30% | – | 3.2 µg/mL (≈ 8.45 µM) | –
CCCCCO[C@@H]1CC[C@H](NC(=O)c2ccn3c(C)cc(C)nc23)C1 [III-145] | 10 to 20% | > 60% | – | – | Compound Solubility in Water ([3]; water): 2.3 µg/mL
